Results: patent US11197965B2, “Method and system for the administration of a pulmonary surfactant by atomization” (CHIESI FARMACEUTICI S.p.A., priority 2013, dated 2021)

Conditions: in vivo
Protocol: Old piglets, weighing between 0.8-2.0 kg, were used.
The procedure was carried out as follows: piglets inhaled 10 mg of lidocaine and lidocaine gel was applied in the oropharynx just before the insertion of a Mayo oropharyngeal atomization cannula. The piglets were then laid on one side according to the randomization protocol, and correct positioning of the oropharyngeal cannula just above the larynx entrance was assessed by fiberbronchoscopy. Curosurf® was thoroughly mixed with 300 MBq of Tc-labeled nanocolloid and the animals received a total of 200 mg/kg Curosurf® (80 mg/mL) through an atomization catheter placed inside the oropharyngeal airway. The surfactant atomization procedure was divided in 4 stages (doses): each stage consisted in the delivery of one fourth of the total surfactant dose with the piglet breathing spontaneously on nasal-CPAP (via special “snout-mask”, see details in methods), followed by 5 minutes of PS-ventilation with PEEP (via snout-mask) to avoid atelectasis and promote delivery of the surfactant to the lower airways. When all the surfactant had been delivered, the oropharyngeal cannula was removed and the piglet received PS-ventilation for 15 min. FiO2 was adjusted to maintain saturation above 85%. To secure the airway under transportation to the gamma camera and scintigraphy, the animals were endotracheally intubated and manually ventilated with a Laerdal Silicone Resuscitator.
The piglets were premedicated with i.m. ketamine, midazolam, and atropine, an ear vein was cannulated, and the animals were sedated with a continuous iv. infusion of dexmedetomedine and ketamine. Sedation was supplemented with small intermittent boluses of iv. propofol when needed. An arterial catheter was placed in the femoral artery under local anaesthesia. Invasive blood pressure, pulse oximetry, cerebral oximetry (INVOS), and the diaphragmatic electrical activity (NAVA catheter) were monitored in all animals.
Group-assignment was random, and arranged so that pigs from the same litter were distributed evenly among the groups, when possible. […]

amount of surfactant deposited into the lung compartment: more than 61% | percentage of surfactant deposited, pharynx (mean) (200 mg/kg): 11.1 percentage | percentage of surfactant deposited, trachea (mean) (200 mg/kg): 13.5 percentage
Substance: poractant alfa [Curosurf]
